Holding throughout (test): NCI tumour cell line growth inhibition, 48 h
Test [1] deals with CAKI-1 renal.
The test system of test [2] is OVCAR-4 ovarian.
Test [3] relates to MDA-MB-435.
Test [4] deals with A549 NSCLC.
Test [5] concerns NCI/ADR-RES ovarian.
The test system of test [6] is SF-295 CNS.
Test [7] has as its system 786-0 renal.
The test system of test [8] is KM12 colon.
The subject of test [9] is U251 CNS.
Test [10] concerns K-562 leukemia.

For seven compounds, GI50 and TGI results are on record in PubChem BioAssay (NCI).

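Step 1: Grow cells in 96-well plates. Step 2: Expose to compound for 48 hours at 5 concentrations. Step 3: Interpolate endpoints linearly; if unreached, use highest concentration. At the GI50, growth is halved. The concentration for full growth arrest is given as TGI.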 Bounds are passed on as bounds.

For `Cc1ccc(C(=O)/C(=C\c2ccc([N+](=O)[O-])cc2)S(=O)Cc2ccc(Cl)cc2)cc1` (configuration not stated), the GI50 was 1.81 µM in [1]; 1.85 µM in [2]; 1.87 µM in test [3]; 3.05 µM in test [4]; 2.72 µM in [5]; 1.8 µM in test [6]. In addition, the GI50 in test [7] was 1.57 µM; in test [8] it was 2.33 µM; in test [9] it was 1.56 µM. Further, the TGI is 4.04 µM in test [1]; 3.85 µM in test [2]; 4 µM in test [3]; 11 µM in test [4]; 7.97 µM in test [5]; 4.28 µM in [6]. Also, the TGI amounted to 2.97 µM in [7], 6.2 µM in test [8] and 3 µM in test [9].
Regarding `CC(C(N)C(=O)NC(C(=O)O)C1OC(n2ccc(=O)[nH]c2=O)C(O)C1O)C(O)c1ccc(O)cn1` (configuration not stated), the TGI in [1], in test [3], in [4], in test [5], in test [6] and in [7] was more than 100 µM throughout. Further, the TGI in test [8] and in test [9] was more than 100 µM in each case.
Consider `Nc1ccc(-c2cccs2)cc1NC(=O)c1ccc(CCCC(=O)Nc2ccc(C3CC3N)cc2)cc1` (configuration not stated), for which the GI50 in [1] is more than 100 µM; in test [2], 1.52 µM; in test [3] it was 1.74 µM; in [5], more than 100 µM; in test [7], 1.61 µM; in test [8], 3.43 µM. The GI50 in [9] was 1.6 µM. Moreover, the TGI in [1] was more than 100 µM; in test [2], 3.3 µM; in [3], 4 µM; in [5], more than 100 µM; in test [7], 3.37 µM; in test [8], more than 100 µM. The TGI in [9] is 3.16 µM.
With `Cc1cc(N2CCOCC2)nc(N(CCCNc2ccnc3cc(Cl)ccc23)Cc2ccco2)n1`, the GI50 in [2] is 3.07 µM; in [3], 0.858 µM; in test [4], 3.77 µM; in [5], 1.95 µM; in test [6], 1.67 µM; in test [10], 1.33 µM. Moreover, the GI50 in [7] is 1.58 µM; in test [8], 2.7 µM; in test [9], 3.15 µM. Further, the TGI was 15.2 µM in test [2]; 6.41 µM in test [3]; 13.6 µM in test [4]; 6.66 µM in [5]; 6.23 µM in test [6]; 11.7 µM in test [10]. The TGI in [7] came out at 3.17 µM; in [8], 12.8 µM; in test [9], 10.6 µM.
Turning to `COc1ccc2c(c1)C(=O)/C(=C/c1ccc([N+](=O)[O-])o1)O2`, the GI50 in test [1] is 0.432 µM; in [2] it was 0.81 µM; in test [3], 1.39 µM; in test [4] it was 2.68 µM; in test [5] it was 3.11 µM; in test [6], 2.35 µM. Further, the GI50 in [7] is 1.79 µM; in [8] it was 1.65 µM; in test [9], 1.64 µM. The TGI in test [1] is 1.49 µM; in test [2] it was 2.06 µM; in [3], 3.02 µM; in [4], more than 22.8 µM; in [5], more than 38.9 µM; in test [6] it was 9.89 µM. Besides, the figures for the TGI in test [7], in [8] and in test [9] were 3.43 µM, 3.11 µM and 3.43 µM, respectively.
On to `CC(=[N-])N1CCC[C@@H](Nc2c3ccccc3nc3ccccc23)C1.[Cl][Pt].[NH-]CCC[NH-]`, for which the GI50 in test [2] is 1.25 µM; in test [3], 4.43 µM; in [4], 0.0325 µM; in test [5], 46 µM; in test [6] it was 0.384 µM; in test [10] it was 0.375 µM. In addition, the values for the GI50 in test [7], in test [8] and in [9] were 3.89 µM, 2.49 µM and 1.58 µM, respectively. Further, the TGI in [2] was 38.9 µM; in [3] it was 18.4 µM; in test [4], more than 100 µM; in test [5], more than 100 µM; in [6] it was more than 100 µM; in [10] it was more than 100 µM. In addition, the TGI in test [7] was more than 24.8 µM; in test [8] it was more than 100 µM; in test [9] it was more than 100 µM.
Take `CC(=O)O[C@H](C[C@H](C(C)C)N(C)C(=O)[C@@H](NC(=O)[C@H]1CCCN1C)C(C)C)c1nc(C(=O)N[C@@H](Cc2ccccc2)C[C@H](C)C(=O)O)c(C)s1`: the GI50 was 0.0773 µM in test [2]; less than 0.00167 µM in test [3]; 0.0155 µM in test [4]; 0.102 µM in test [5]; less than 0.00167 µM in test [6]; less than 0.00167 µM in test [10]. The GI50 in test [7] was 0.00441 µM; in [8], less than 0.00167 µM; in test [9] it was less than 0.00167 µM. In addition, the TGI in test [2] is more than 16.7 µM; in test [3], less than 0.00167 µM; in test [4], more than 16.7 µM; in [5], more than 16.7 µM; in [6] it was more than 16.7 µM; in [10] it was more than 16.7 µM. The TGI in [7], in test [8] and in [9] was more than 16.7 µM each time.
